{"source": "ChEMBL document CHEMBL6127068", "about": "“Discovery of novel nitrofuran PROTAC-like compounds as dual inhibitors and degraders targeting STING” (Eur J Med Chem, 2024)", "key": {"[1]": {"biological_target": "T1, Protein cereblon/Stimulator of interferon genes protein (Homo sapiens, UniProt Q96SW2+Q86WV6)", "T1 sequence (Q86WV6 whole entry, looked up)": "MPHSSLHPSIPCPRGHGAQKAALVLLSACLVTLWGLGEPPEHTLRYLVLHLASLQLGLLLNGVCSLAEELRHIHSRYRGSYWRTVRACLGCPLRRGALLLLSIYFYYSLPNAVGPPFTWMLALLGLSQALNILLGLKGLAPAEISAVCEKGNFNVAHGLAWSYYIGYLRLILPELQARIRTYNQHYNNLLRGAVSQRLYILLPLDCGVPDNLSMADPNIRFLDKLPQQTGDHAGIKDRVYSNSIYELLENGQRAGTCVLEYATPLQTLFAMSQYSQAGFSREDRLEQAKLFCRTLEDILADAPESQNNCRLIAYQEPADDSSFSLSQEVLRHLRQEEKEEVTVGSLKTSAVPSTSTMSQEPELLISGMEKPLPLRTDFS", "T1 sequence (Q96SW2 whole entry, looked up)": "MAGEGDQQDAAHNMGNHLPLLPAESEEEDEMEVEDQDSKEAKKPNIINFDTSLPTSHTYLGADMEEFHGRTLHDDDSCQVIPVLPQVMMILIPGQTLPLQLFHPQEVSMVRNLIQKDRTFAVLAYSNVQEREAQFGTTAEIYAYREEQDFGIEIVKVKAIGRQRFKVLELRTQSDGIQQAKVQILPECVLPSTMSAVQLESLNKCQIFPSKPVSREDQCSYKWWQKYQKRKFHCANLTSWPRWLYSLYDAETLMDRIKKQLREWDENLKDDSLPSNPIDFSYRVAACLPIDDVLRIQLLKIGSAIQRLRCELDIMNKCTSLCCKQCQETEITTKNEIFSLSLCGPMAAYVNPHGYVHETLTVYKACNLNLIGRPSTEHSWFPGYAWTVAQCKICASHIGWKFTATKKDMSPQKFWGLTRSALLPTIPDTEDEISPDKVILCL", "test": "PROTAC activity at CRBN/STING in human THP-1 cells assessed as inhibition of cGAMP-induced IL-6 mRNA expression incubated for 1 hr followed by stimulation with cGAMP for 24 hrs by qRT-PCR analysis", "assay_type": "cell-based", "details": "dose 5-20 µM, time 25.0 hrs"}, "[2]": {"biological_target": "T1, Protein cereblon/Stimulator of interferon genes protein", "test": "PROTAC activity at CRBN/STING in human THP-1 cells assessed as inhibition of cGAMP-induced IRF3 phosphorylation incubated for 24 hrs followed by stimulation with cGAMP for 24 hrs by western blot analysis", "assay_type": "cell-based", "details": "dose 0.3-20 µM, time 48.0 hrs"}, "Mus musculus [3]": {"tested_on": "Mus musculus", "test": "Anti-inflammatory activity against cisplatin-induced acute kidney injury C57BL/6J mouse model assessed as animal survival rate at 25 to 50 mg/kg measured at 72 hrs post-cisplatin administration (reference value: 66.7%)", "assay_type": "functional", "details": "dose 25-50 mg/kg"}, "[4]": {"biological_target": "T2, Protein cereblon/Stimulator of interferon genes protein (Mus musculus) (UniProt Q3TBT3+Q8C7D2)", "T2 sequence (Q8C7D2 whole entry, looked up, one chain of several)": "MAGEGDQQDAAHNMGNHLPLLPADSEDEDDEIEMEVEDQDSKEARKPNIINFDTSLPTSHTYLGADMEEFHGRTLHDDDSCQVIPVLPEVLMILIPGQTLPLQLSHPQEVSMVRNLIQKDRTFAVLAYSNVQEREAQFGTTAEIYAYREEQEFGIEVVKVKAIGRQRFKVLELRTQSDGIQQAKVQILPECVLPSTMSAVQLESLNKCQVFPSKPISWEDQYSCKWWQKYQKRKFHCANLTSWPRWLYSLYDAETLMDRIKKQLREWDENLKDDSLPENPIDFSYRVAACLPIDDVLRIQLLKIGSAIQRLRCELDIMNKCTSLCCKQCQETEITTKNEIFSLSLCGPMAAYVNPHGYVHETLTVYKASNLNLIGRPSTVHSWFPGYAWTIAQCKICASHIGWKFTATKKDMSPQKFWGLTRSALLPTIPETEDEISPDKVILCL", "test": "In vivo inhibition of STING signaling pathway in C57BL/6J mouse assessed as inhibition of cisplatin-induced TNF-alpha mRNA expression in kidney at 25 to 50 mg/kg by qPCR analysis", "assay_type": "functional, organism-based", "details": "dose 25-50 mg/kg"}, "[5]": {"biological_target": "T1, Protein cereblon/Stimulator of interferon genes protein", "test": "PROTAC activity at CRBN/STING in human THP-1 cells assessed as induction of STING degradation at 3 uM pretreated with lysosome inhibitor, bafilomycin for 1 hr followed by incubation with compound for 24 hrs by western blot analysis", "assay_type": "cell-based"}, "Mus musculus [6]": {"tested_on": "Mus musculus", "test": "Anti-inflammatory activity against cisplatin-induced acute kidney injury C57BL/6J mouse model assessed as decrease in plasma creatinine level at 25 to 50 mg/kg", "assay_type": "functional, organism-based", "details": "dose 25-50 mg/kg"}, "[7]": {"biological_target": "T1, Protein cereblon/Stimulator of interferon genes protein", "test": "PROTAC activity at CRBN/STING in human THP-1 cells assessed as inhibition of cGAMP-induced ISG15 mRNA expression incubated for 1 hr followed by stimulation with cGAMP for 24 hrs by qRT-PCR analysis", "assay_type": "cell-based", "details": "dose 5-20 µM, time 25.0 hrs"}, "[8]": {"biological_target": "T2, Protein cereblon/Stimulator of interferon genes protein (Mus musculus)", "test": "In vivo inhibition of STING signaling pathway in C57BL/6J mouse assessed as inhibition of cisplatin-induced IL-1 beta mRNA expression in kidney at 25 to 50 mg/kg by qPCR analysis", "assay_type": "functional, organism-based", "details": "dose 25-50 mg/kg"}, "[9]": {"biological_target": "T3, Stimulator of interferon genes protein (Mus musculus) (UniProt Q3TBT3)", "T3 sequence (whole entry)": "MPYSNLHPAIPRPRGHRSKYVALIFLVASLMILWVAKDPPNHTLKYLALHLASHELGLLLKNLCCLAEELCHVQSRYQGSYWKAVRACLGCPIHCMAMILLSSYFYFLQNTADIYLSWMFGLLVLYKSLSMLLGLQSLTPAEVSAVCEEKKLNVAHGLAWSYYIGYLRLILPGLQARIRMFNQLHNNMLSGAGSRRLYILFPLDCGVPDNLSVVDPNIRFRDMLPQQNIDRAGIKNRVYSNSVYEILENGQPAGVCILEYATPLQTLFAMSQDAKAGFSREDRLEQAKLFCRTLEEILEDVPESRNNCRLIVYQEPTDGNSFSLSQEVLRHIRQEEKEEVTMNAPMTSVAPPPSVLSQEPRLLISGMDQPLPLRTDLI", "test": "Inhibition of STING in mouse RAW264.7 cells assessed as reduction in SR717-induced TBK1 phosphorylation at 0.3 to 20 uM pretreated for 1 hr followed by stimulation with SR717 for 24 hrs by western blot analysis", "assay_type": "cell-based", "details": "dose 0.3-20 µM, time 25.0 hrs"}, "Mus musculus [10]": {"tested_on": "Mus musculus", "test": "Anti-inflammatory activity against cisplatin-induced acute kidney injury C57BL/6J mouse model assessed as decrease in kidney damage at 25 to 50 mg/kg by Hematoxylin-Eosin staining based microscopic analysis", "assay_type": "functional, organism-based", "details": "dose 25-50 mg/kg"}, "[11]": {"biological_target": "T2, Protein cereblon/Stimulator of interferon genes protein (Mus musculus)", "test": "In vivo inhibition of STING signaling pathway in C57BL/6J mouse assessed as inhibition of cisplatin-induced IL-6 mRNA expression in kidney at 25 to 50 mg/kg by qPCR analysis", "assay_type": "functional, organism-based", "details": "dose 25-50 mg/kg"}, "[12]": {"biological_target": "T2, Protein cereblon/Stimulator of interferon genes protein (Mus musculus)", "test": "In vivo inhibition of STING signaling pathway in C57BL/6J mouse assessed as inhibition of cisplatin-induced ISG56 mRNA expression in kidney at 25 to 50 mg/kg by qPCR analysis", "assay_type": "functional, organism-based", "details": "dose 25-50 mg/kg"}, "HEK-293T": {"tested_on": "HEK-293T", "test": "Cytotoxicity against HEK293T cells assessed as effect on cell viability at <10 uM incubated for 48 hrs by MTT assay", "assay_type": "toxicity, cell-based", "details": "human"}, "THP-1": {"tested_on": "THP-1", "test": "Effect on STING mRNA expression in human THP-1 cells at 10 uM incubated for 12 to 48 hrs by qRT-PCR analysis", "assay_type": "functional, cell-based", "details": "time 12-48 hrs"}, "[13]": {"biological_target": "T1, Protein cereblon/Stimulator of interferon genes protein", "test": "PROTAC activity at CRBN/STING in human THP-1 cells assessed as inhibition of cGAMP-induced IFN-beta mRNA expression incubated for 1 hr followed by stimulation with cGAMP for 24 hrs by qRT-PCR analysis", "assay_type": "cell-based", "details": "dose 5-20 µM, time 25.0 hrs"}, "[14]": {"biological_target": "T3, Stimulator of interferon genes protein (Mus musculus)", "test": "Inhibition of STING in mouse RAW264.7 cells assessed as reduction in SR717-induced IRF3 phosphorylation at 0.3 to 20 uM pretreated for 1 hr followed by stimulation with SR717 for 24 hrs by western blot analysis", "assay_type": "cell-based", "details": "dose 0.3-20 µM, time 25.0 hrs"}, "[15]": {"biological_target": "T3, Stimulator of interferon genes protein (Mus musculus)", "test": "Inhibition of STING in mouse RAW264.7 cells assessed as reduction in DMXAA-induced CXCL10 mRNA expression at 5 to 20 uM pretreated for 1 hr followed by stimulation with DMXAA for 24 hrs by qRT-CPR analysis", "assay_type": "cell-based", "details": "dose 5-20 µM, time 25.0 hrs"}, "[16]": {"biological_target": "T3, Stimulator of interferon genes protein (Mus musculus)", "test": "Inhibition of STING in mouse RAW264.7 cells assessed as reduction in DMXAA-induced IFN-beta mRNA expression at 5 to 20 uM pretreated for 1 hr followed by stimulation with DMXAA for 24 hrs by qRT-CPR analysis", "assay_type": "cell-based", "details": "dose 5-20 µM, time 25.0 hrs"}, "[17]": {"biological_target": "T2, Protein cereblon/Stimulator of interferon genes protein (Mus musculus)", "test": "In vivo inhibition of STING signaling pathway in C57BL/6J mouse assessed as inhibition of cisplatin-induced ISG15 mRNA expression in kidney at 25 to 50 mg/kg by qPCR analysis", "assay_type": "functional, organism-based", "details": "dose 25-50 mg/kg"}, "[18]": {"biological_target": "T1, Protein cereblon/Stimulator of interferon genes protein", "test": "PROTAC activity at CRBN/STING in human THP-1 cells assessed as induction of STING degradation at 10 uM measured after 9 hrs by western blot analysis", "assay_type": "cell-based"}}, "note": "Calls of active or inactive are those of the source. No cut-off for these calls is given here.", "data": [{"smiles": "O=C1CCC(N2C(=O)c3cccc(OCc4cn(CCCCCC(=O)OCCc5ccc(NC(=O)c6ccc([N+](=O)[O-])o6)cc5)nn4)c3C2=O)C(=O)N1", "note": "(stereo not given)", "values": [{"measurement": "Activity", "setting": "[1]", "result": "Dose-Dependent Effect"}, {"measurement": "Activity", "setting": "[2]", "result": "Dose-Dependent Effect"}, {"measurement": "Survival", "setting": "Mus musculus [3]", "result": 100, "unit": "%"}, {"measurement": "inhibition", "setting": "[4]", "result": "Active"}, {"measurement": "Activity", "setting": "[5]", "result": "inactive"}, {"measurement": "Activity", "setting": "Mus musculus [6]", "result": "Active"}, {"measurement": "Activity", "setting": "[7]", "result": "Dose-Dependent Effect"}, {"measurement": "inhibition", "setting": "[8]", "result": "Active"}, {"measurement": "inhibition", "setting": "[9]", "result": "Dose-Dependent Effect"}, {"measurement": "Activity", "setting": "Mus musculus [10]", "result": "Active"}, {"measurement": "inhibition", "setting": "[11]", "result": "Active"}, {"measurement": "inhibition", "setting": "[12]", "result": "Active"}, {"measurement": "Activity", "setting": "HEK-293T", "result": "Non-Toxic"}, {"measurement": "Activity", "setting": "THP-1", "result": "inactive"}, {"measurement": "Activity", "setting": "[13]", "result": "Dose-Dependent Effect"}, {"measurement": "inhibition", "setting": "[14]", "result": "Dose-Dependent Effect"}, {"measurement": "inhibition", "setting": "[15]", "result": "Dose-Dependent Effect"}, {"measurement": "inhibition", "setting": "[16]", "result": "Dose-Dependent Effect"}, {"measurement": "inhibition", "setting": "[17]", "result": "Active"}, {"measurement": "Activity", "setting": "[18]", "result": "Active"}]}]}
